Experimental findings from patent US12214059B2, “Cleavable radioligands for targeting cell surface receptors and uses thereof” (Full-Life Te[…] Limited, priority 2021, dated 2025) are described below.

A short description of data set [1]: Ex-vivo mouse plasma stability study of ^177Lu-labeled compounds. It counts as in vitro ADME. As to conditions: 37° C. The procedure:
Plasma Stability Study (Mouse and Human)
Mouse blood was collected via cardiac puncture of the left ventricle. Blood was placed into heparin-coated microfuge tubes and then centrifuged at 3500 rpm for 10 min to separate plasma for stability studies. Human plasma was purchased directly.
At each time point (0, 1, 2, 4, 24, 48 72 h), an aliquot of 25 μL sample was taken and mixed with 100 μL methanol containing 1% formic acid, vertex for 30-60 sec, then centrifuged at 20000 rpm for 10 min. 100 μL supernatant was collected and diluted with 40 μL H2O. 100 μL of the resulting mixture was injected to radio-HPLC for stability assessment, as shown examples FIG. 2 and FIG. 3. The best-fit T½ value of test compounds were calculated by fitting the data with linear or non-linear regression using GraphPad Prism 8.0.1.

The target of data set [2] is T1, PSMA (Homo sapiens, UniProt Q04609).
T1 construct: host or cells: LNCaP cells
T1 sequence (Q04609 whole entry): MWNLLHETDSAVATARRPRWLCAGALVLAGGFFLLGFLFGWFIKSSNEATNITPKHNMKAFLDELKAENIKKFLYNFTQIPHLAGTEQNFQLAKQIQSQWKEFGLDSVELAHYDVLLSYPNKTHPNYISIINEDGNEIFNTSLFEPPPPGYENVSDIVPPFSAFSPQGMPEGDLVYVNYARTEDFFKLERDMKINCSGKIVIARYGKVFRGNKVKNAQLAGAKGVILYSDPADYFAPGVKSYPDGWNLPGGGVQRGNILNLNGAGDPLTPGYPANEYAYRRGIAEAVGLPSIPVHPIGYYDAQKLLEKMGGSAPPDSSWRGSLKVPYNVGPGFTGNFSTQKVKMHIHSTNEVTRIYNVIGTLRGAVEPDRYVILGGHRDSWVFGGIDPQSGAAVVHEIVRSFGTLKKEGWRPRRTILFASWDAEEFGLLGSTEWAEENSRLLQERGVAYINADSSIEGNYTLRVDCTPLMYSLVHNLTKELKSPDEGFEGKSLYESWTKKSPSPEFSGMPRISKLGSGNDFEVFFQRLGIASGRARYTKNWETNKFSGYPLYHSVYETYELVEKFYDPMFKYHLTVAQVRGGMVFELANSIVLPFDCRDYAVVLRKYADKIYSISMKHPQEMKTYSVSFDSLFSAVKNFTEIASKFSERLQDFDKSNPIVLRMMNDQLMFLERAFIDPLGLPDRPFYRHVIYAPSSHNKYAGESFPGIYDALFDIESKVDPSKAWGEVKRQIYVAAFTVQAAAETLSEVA
Description: Cell-based radioligand competitive binding assay (^125I-C-8, LNCaP cells). As to conditions: for Relative Binding Affinity: C-1 = 1.00. The procedure: The culture medium was replaced with fresh medium every 2-3 days. Experiments were performed with cells at 70-80% confluence.
The final volume in each well was maintained at 200 μL and insufficient volume was adjusted by the binding buffer.

The subject of data set [3] is PC-3 PIP tumor-bearing mice. Description: Biodistribution study in SCID mice bearing PC3-PIP tumor. Format: in vivo, mouse. As to conditions: PC3 PIP tumor-bearing mice. On the procedure: Biodistribution Study in SCID Mice Bearing PC3-PIP Tumor
Severe combined immunodeficient (ICR-SCID) mice from the Institute of Cancer Research (Taconic Farms, Germantown, NY) were utilized for these studies. […] These mice received bilateral subcutaneous rear flank injections of approximately 10×10^6 PC-3 PIP cells (prostate cancer cell PC-3 stably expressing human PSMA) suspended in 100 μL of 0.9% NaCl. […] The tissues and organs were weighed, counted in a PerkinElmer Wizard 3 automatic γ counter, and the percent injected dose (% ID) and % ID/g of each organ or tissue were calculated, as shown in Tables 5-24 and FIG. 1 and FIG. 2.

Data set [4] concerns LNCap tumor-bearing mice. Description: Biodistribution study in CB-17 SCID mice bearing LNCap tumor. Format: in vivo, mouse. As to conditions: LNCap tumor-bearing mice. The procedure: Biodistribution Study in CB-17 SCID Mice Bearing LNCap Tumor
All animal care and experimental procedure were performed by following the animal protocols approved by the ethics committee of China Institute of Radiation Protection. The CB-17 SCID mice (Charles River, Beijing) were utilized for these studies. […] These mice received subcutaneous rear flank injections of approximately 4×10^6 LNCap cells suspended in 200 μL of phosphate-buffered saline (PBS) and Matrigel (Corning) (1/1).

For orientation: IC50 means the point on the concentration scale where inhibition reaches its midpoint.

Regarding `O=C(O)CC[C@H](NC(=O)N[C@@H](CCCCNC(=O)[C@H](Cc1ccc2ccccc2c1)NC(=O)C1CCC(CNC(=O)CN2CCN(CC(=O)O)CCN(CC(=O)O)CCN(CC(=O)O)CC2)CC1)C(=O)O)C(=O)O` (stereo partly drawn) [Example C-1, (((S)-1-carboxy-5-((S)-3-(naphthalen-2-yl)-2-((1r,4S)-4-((2-(4,7,10-tris(carboxymethyl)-1,4,7,10-tetraazacyclododecan-1-yl)acetamido)methyl)cyclohexane-1-carboxamido)propanamido)pentyl)carbamoyl)-L-glutamic acid tetra(trifluoroacetic acid), reference compound], in data set [1] (0 min), the “% Remaining 0 min” value came out at 100%. Further, in data set [1] (1 h), the “% Remaining 1 h” value is recorded as 100%. The “% Remaining 4 h” value in data set [1] (4 h) worked out at 100%. Moreover, the “% Remaining 24 h” value in data set [1] (24 h) was 100%. In data set [1] (48 h), the “% Remaining 48 h” value was 100%. Moreover, the “% Remaining 72 h” value in data set [1] (72 h) was determined as 100%. Further, the “T½ (h)” value in data set [1] (* = value obtained using nonlinear regression) is reported as “Stable”. For the same compound, the “Relative Binding Affinity” value in data set [2] (based on the mean value of the IC50 number) and in data set [2] (relative) was 1.00 throughout. Moreover, the “LogIC50 Mean” value in data set [2] (log10 of IC50 (negative values), nonlin fit, LNCaP cells, ^125I-C-8 radioligand) is given as −8.544. This compound yielded an IC50 in data set [2] (nonlin fit, LNCaP cells, ^125I-C-8 radioligand, scientific notation, unit inferred) of 2.86 nM. Further, the “T/K at 4 h (tumor uptake/kidney uptake)” value in data set [3] (4 h) was determined as 7.0; in data set [4] (4 h), 2.52. Besides, the “T at 24 h (tumor uptake)” value is recorded as 10.4 in data set [3] (24 h) and 10.0 in data set [4] (24 h). For the same compound, the “T/K at 24 h (tumor uptake/kidney uptake)” value turned out to be 57 in data set [3] (24 h) and 7.04 in data set [4] (24 h). For the same compound, the entries for the “T at 96 h (tumor uptake)” value in data set [3] (96 h) and in data set [4] (96 h) were 7.3 and 10.1, respectively. The “T/K at 96 h (tumor uptake/kidney uptake)” value in data set [3] (96 h) was 182. For the same compound, the “T/K at 96 h (tumor uptake/kidney uptake), *value at 72 h” value in data set [4] (value at 72 h) is 15.5*.
